Laboratory results taken from patent US20150105252A1, “SUBSTITUTED PYRAZOLES AS HERBICIDES” (E I DU PONT DE NEMOURS AND COMPANY, priority 2013, published 2015).

Key:
[1] = tested on: wheat; experiment: Test A preemergence; type: in vivo, Triticum aestivum; conditions: Preemergence, 1000 g ai/ha; 0 to 100 scale, 0 no effect, 100 complete control
Summary of the method: (§1)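 Pre- and postemergence greenhouse test; loam+sand; cpd in non-phytotox. solvent/surfactant; post at 1–2 leaf, 2–10 cm; visual score ~10 d, 0 = none, 100 = complete control.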

[2] = tested on: morningglory; experiment: Test A preemergence; type: in vivo, Ipomoea spp.; conditions: Preemergence, 1000 g ai/ha; 0 to 100 scale, 0 no effect, 100 complete control
Summary of the method: as §1

[3] = tested on: crabgrass, large; experiment: Test A postemergence; type: in vivo, Digitaria sanguinalis; conditions: Postemergence, 1000 g ai/ha; visual rating after approx. 10 days, 0 to 100 scale (0 no effect, 100 complete control)
Summary of the method: as §1

[4] = tested on: rice; experiment: Test C flooded paddy test; type: in vivo, Oryza sativa; conditions: Flood
Summary of the method: (§2)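 In-water treatment: compound dosed into 3 cm flood over soil, water level unchanged throughout. Controls run alongside; visual assessment at day 13–15.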

[5] = tested on: velvetleaf; experiment: Test A preemergence; type: in vivo, Abutilon theophrasti; conditions: Preemergence, 1000 g ai/ha; 0 to 100 scale, 0 no effect, 100 complete control
Summary of the method: as §1

[6] = tested on: corn; experiment: Test A preemergence; type: in vivo, Zea mays; conditions: Preemergence, 1000 g ai/ha; 0 to 100 scale, 0 no effect, 100 complete control
Summary of the method: as §1

[7] = tested on: barnyardgrass; experiment: Test A postemergence; type: in vivo, Echinochloa crus-galli; conditions: Postemergence, 1000 g ai/ha; visual rating after approx. 10 days, 0 to 100 scale (0 no effect, 100 complete control)
Summary of the method: as §1

[8] = tested on: barnyardgrass; experiment: Test C flooded paddy test; type: in vivo, Echinochloa crus-galli; conditions: Flood
Summary of the method: as §2

[9] = tested on: pigweed; experiment: Test A postemergence; type: in vivo, Amaranthus retroflexus; conditions: Postemergence, 1000 g ai/ha; visual rating after approx. 10 days, 0 to 100 scale (0 no effect, 100 complete control)
Summary of the method: as §1

[10] = tested on: foxtail, giant; experiment: Test A postemergence; type: in vivo, Setaria faberii; conditions: Postemergence, 1000 g ai/ha; visual rating after approx. 10 days, 0 to 100 scale (0 no effect, 100 complete control)
Summary of the method: as §1

[11] = tested on: pigweed; experiment: Test A preemergence; type: in vivo, Amaranthus retroflexus; conditions: Preemergence, 1000 g ai/ha; 0 to 100 scale, 0 no effect, 100 complete control
Summary of the method: as §1

[12] = tested on: ducksalad; experiment: Test C flooded paddy test; type: in vivo, Heteranthera limosa; conditions: Flood
Excerpt: (§3) At time of treatment, test pots were flooded to 3 cm above the soil surface, treated by application of test compounds directly to the paddy water, and then maintained at that water depth for the duration of the test. Treated plants and controls were maintained in a greenhouse for 13 to 15 days, after which time all species were compared to controls and visually evaluated. […] A dash (-) response means no test result.

[13] = tested on: corn; experiment: Test A postemergence; type: in vivo, Zea mays; conditions: Postemergence, 1000 g ai/ha; visual rating after approx. 10 days, 0 to 100 scale (0 no effect, 100 complete control)
Summary of the method: as §1

[14] = tested on: barnyardgrass; experiment: Test A preemergence; type: in vivo, Echinochloa crus-galli; conditions: Preemergence, 1000 g ai/ha; 0 to 100 scale, 0 no effect, 100 complete control
Summary of the method: as §1

[15] = tested on: foxtail, giant; experiment: Test A preemergence; type: in vivo, Setaria faberii; conditions: Preemergence, 1000 g ai/ha; 0 to 100 scale, 0 no effect, 100 complete control
Summary of the method: as §1

[16] = tested on: crabgrass, large; experiment: Test A preemergence; type: in vivo, Digitaria sanguinalis; conditions: Preemergence, 1000 g ai/ha; 0 to 100 scale, 0 no effect, 100 complete control
Summary of the method: as §1

[17] = tested on: wheat; experiment: Test A postemergence; type: in vivo, Triticum aestivum; conditions: Postemergence, 1000 g ai/ha; visual rating after approx. 10 days, 0 to 100 scale (0 no effect, 100 complete control)
Summary of the method: as §1

[18] = tested on: sedge, umbrella; experiment: Test C flooded paddy test; type: in vivo, Cyperus difformis; conditions: Flood
Excerpt: as §3

[19] = tested on: morningglory; experiment: Test A postemergence; type: in vivo, Ipomoea spp.; conditions: Postemergence, 1000 g ai/ha; visual rating after approx. 10 days, 0 to 100 scale (0 no effect, 100 complete control)
Summary of the method: as §1

[20] = tested on: velvetleaf; experiment: Test A postemergence; type: in vivo, Abutilon theophrasti; conditions: Postemergence, 1000 g ai/ha; visual rating after approx. 10 days, 0 to 100 scale (0 no effect, 100 complete control)
Summary of the method: as §1

[21] = 31 g ai/ha, scale 0 to 100 (0 no effect, 100 complete control)
[22] = 62 g ai/ha, scale 0 to 100 (0 no effect, 100 complete control)

| SMILES | Wheat plant response rating [1] | Morningglory plant response rating [2] | Crabgrass, Large plant response rating [3] | Plant response rating, Rice [4, 21] | Plant response rating, Rice [4, 22] | Plant response rating, Rice ([4]; 125 g ai/ha, scale 0 to 100) | Plant response rating, Rice ([4]; 250 g ai/ha, scale 0 to 100) | Velvetleaf plant response rating [5] | Corn plant response rating [6] | Barnyardgrass plant response rating [7] | Plant response rating, Barnyardgrass [8, 21] | Plant response rating, Barnyardgrass [8, 22] | Plant response rating, Barnyardgrass ([8]; 125 g ai/ha, scale 0 to 100) | Plant response rating, Barnyardgrass ([8]; 250 g ai/ha, scale 0 to 100) | Pigweed plant response rating [9] | Foxtail, Giant plant response rating [10] | Pigweed plant response rating [11] | Plant response rating, Ducksalad [12, 21] | Plant response rating, Ducksalad ([12]; 125 g ai/ha, scale 0 to 100) | Plant response rating, Ducksalad ([12]; 250 g ai/ha, scale 0 to 100) | further results |
| --- | --- | --- | --- | --- | --- | --- | --- | --- | --- | --- | --- | --- | --- | --- | --- | --- | --- | --- | --- | --- | --- |
| CCCc1cc(C(=O)NCC)nn1Cc1cccc(C(F)(F)F)c1 [Compound 29] | 10 | 60 | 70 | 0 | 0 | 0 | 0 | 40 | 0 | 80 | 0 | 0 | 0 | 20 | 100 | 90 | 90 | 0 | 85 | 85 | Plant response rating, Ducksalad [12, 22]: 0; Corn plant response rating [13]: 50; Barnyardgrass plant response rating [14]: 50; Foxtail, Giant plant response rating [15]: 80; Crabgrass, Large plant response rating [16]: 100; Wheat plant response rating [17]: 40; Plant response rating, Sedge, Umbrella [18, 21]: 0; Plant response rating, Sedge, Umbrella [18, 22]: 0; Plant response rating, Sedge, Umbrella ([18]; 125 g ai/ha, scale 0 to 100): 75; Plant response rating, Sedge, Umbrella ([18]; 250 g ai/ha, scale 0 to 100): 80; Morningglory plant response rating [19]: 90; Velvetleaf plant response rating [20]: 100 |
| CCCc1cc(C(=O)NC2CC2)nn1Cc1cccc(C(F)(F)F)c1 [Compound 30] | 10 | 60 | 90 | 0 | 0 | 0 | 0 | 30 | 20 | 70 | 0 | 0 | 0 | 20 | 100 | 100 | 30 | 60 | 80 | 100 | Corn plant response rating [13]: 40; Barnyardgrass plant response rating [14]: 90; Foxtail, Giant plant response rating [15]: 100; Crabgrass, Large plant response rating [16]: 100; Wheat plant response rating [17]: 40; Plant response rating, Sedge, Umbrella [18, 21]: 0; Plant response rating, Sedge, Umbrella [18, 22]: 0; Plant response rating, Sedge, Umbrella ([18]; 125 g ai/ha, scale 0 to 100): 0; Plant response rating, Sedge, Umbrella ([18]; 250 g ai/ha, scale 0 to 100): 80; Morningglory plant response rating [19]: 100; Velvetleaf plant response rating [20]: 100 |
